According to ChEMBL document CHEMBL3621049, “Imidazole derivatives show anticancer potential by inducing apoptosis and cellular senescence” (2014):
Active and inactive are the calls of the source.

Experiments:
Type in all cases: functional, cell-based
OVCAR-3 = assay: Growth inhibition of human OVCAR3 cells at 10 uM by sulforhodamine B assay
NCI-H522 = assay: Growth inhibition of human NCI-H522 cells at 10 uM by sulforhodamine B assay
SR = assay: Growth inhibition of human SR cells at 10 uM by sulforhodamine B assay
A498 = assay: Growth inhibition of human A498 cells at 10 uM by sulforhodamine B assay
SK-MEL-2 = assay: Growth inhibition of human SK-MEL-2 cells at 10 uM by sulforhodamine B assay
COLO 205 = assay: Growth inhibition of human COLO205 cells at 10 uM by sulforhodamine B assay
M14 = assay: Growth inhibition of human M14 cells at 10 uM by sulforhodamine B assay
NCI-H322M = assay: Growth inhibition of human NCI-H322M cells at 10 uM by sulforhodamine B assay
OVCAR-4 = assay: Growth inhibition of human OVCAR4 cells at 10 uM by sulforhodamine B assay
CAKI-1 = assay: Growth inhibition of human Caki1 cells at 10 uM by sulforhodamine B assay
SF-295 = assay: Growth inhibition of human SF295 cells at 10 uM by sulforhodamine B assay
LOX IMVI = assay: Growth inhibition of human LOXIMVI cells at 10 uM by sulforhodamine B assay
ACHN = assay: Growth inhibition of human ACHN cells at 10 uM by sulforhodamine B assay
OVCAR-5 = assay: Growth inhibition of human OVCAR5 cells at 10 uM by sulforhodamine B assay
BT-549 = assay: Growth inhibition of human BT549 cells at 10 uM by sulforhodamine B assay
Malme-3M = assay: Growth inhibition of human MALME-3M cells at 10 uM by sulforhodamine B assay
MDA-MB-231 = assay: Growth inhibition of human MDA-MB-231 cells at 10 uM by sulforhodamine B assay
786-0 = assay: Growth inhibition of human 786-0 cells at 10 uM by sulforhodamine B assay
SNB-75 = assay: Growth inhibition of human SNB75 cells at 10 uM by sulforhodamine B assay
SK-OV-3 = assay: Growth inhibition of human SKOV3 cells at 10 uM by sulforhodamine B assay
MDA-MB-468 = assay: Growth inhibition of human MDA-MB-468 cells at 10 uM by sulforhodamine B assay
K562 = assay: Growth inhibition of human K562 cells at 10 uM by sulforhodamine B assay
MDA-MB-435 = assay: Growth inhibition of human MDA-MB-435 cells at 10 uM by sulforhodamine B assay
SK-MEL-5 = assay: Growth inhibition of human SK-MEL-5 cells at 10 uM by sulforhodamine B assay
UO-31 = assay: Growth inhibition of human UO31 cells at 10 uM by sulforhodamine B assay
Hs-578T = assay: Growth inhibition of human Hs 578T cells at 10 uM by sulforhodamine B assay
MCF7 = assay: Growth inhibition of human MCF7 cells at 10 uM by sulforhodamine B assay
PC-3 = assay: Growth inhibition of human PC3 cells at 10 uM by sulforhodamine B assay
CCRF-CEM = assay: Growth inhibition of human CCRF-CEM cells at 10 uM by sulforhodamine B assay
SF-268 = assay: Growth inhibition of human SF268 cells at 10 uM by sulforhodamine B assay
NCI-H23 = assay: Growth inhibition of human NCI-H23 cells at 10 uM by sulforhodamine B assay
RXF 393 = assay: Growth inhibition of human RXF393 cells at 10 uM by sulforhodamine B assay
NCI-H460 = assay: Growth inhibition of human NCI-H460 cells at 10 uM by sulforhodamine B assay
UACC-257 = assay: Growth inhibition of human UACC257 cells at 10 uM by sulforhodamine B assay
HCT-116 = assay: Growth inhibition of human HCT116 cells at 10 uM by sulforhodamine B assay
HT-29 = assay: Growth inhibition of human HT-29 cells at 10 uM by sulforhodamine B assay
HL-60(TB) = assay: Growth inhibition of human HL-60(TB) cells at 10 uM by sulforhodamine B assay
T47D = assay: Growth inhibition of human T47D cells at 10 uM by sulforhodamine B assay
SNB-19 = assay: Growth inhibition of human SNB19 cells at 10 uM by sulforhodamine B assay
DU-145 = assay: Growth inhibition of human DU145 cells at 10 uM by sulforhodamine B assay
HOP-92 = assay: Growth inhibition of human HOP92 cells at 10 uM by sulforhodamine B assay
NCI/ADR-RES = assay: Growth inhibition of human NCI/ADR-RES cells at 10 uM by sulforhodamine B assay
HCC 2998 = assay: Growth inhibition of human HCC2998 cells at 10 uM by sulforhodamine B assay
KM12 = assay: Growth inhibition of human KM12 cells at 10 uM by sulforhodamine B assay
A549 = assay: Growth inhibition of human A549/ATCC cells at 10 uM by sulforhodamine B assay
UACC-62 = assay: Growth inhibition of human UACC62 cells at 10 uM by sulforhodamine B assay
IGROV-1 = assay: Growth inhibition of human IGROV1 cells at 10 uM by sulforhodamine B assay
RPMI-8226 = assay: Growth inhibition of human RPMI8226 cells at 10 uM by sulforhodamine B assay
NCI-H226 = assay: Growth inhibition of human NCI-H226 cells at 10 uM by sulforhodamine B assay
SW-620 = assay: Growth inhibition of human SW620 cells at 10 uM by sulforhodamine B assay
TK-10 = assay: Growth inhibition of human TK10 cells at 10 uM by sulforhodamine B assay
SN12C = assay: Growth inhibition of human SN12C cells at 10 uM by sulforhodamine B assay
HOP-62 = assay: Growth inhibition of human HOP62 cells at 10 uM by sulforhodamine B assay
OVCAR-8 = assay: Growth inhibition of human OVCAR8 cells at 10 uM by sulforhodamine B assay
U-251 = assay: Growth inhibition of human U251 cells at 10 uM by sulforhodamine B assay
SF-539 = assay: Growth inhibition of human SF539 cells at 10 uM by sulforhodamine B assay
HCT-15 = assay: Growth inhibition of human HCT15 cells at 10 uM by sulforhodamine B assay
MOLT-4 = assay: Growth inhibition of human MOLT4 cells at 10 uM by sulforhodamine B assay
SK-MEL-28 = assay: Growth inhibition of human SK-MEL-28 cells at 10 uM by sulforhodamine B assay

Measured: growth inhibition (GI)

C#CCn1c(-c2ccc(OC3CCCC3)c(OC)c2)nc(-c2ccccc2)c1-c1ccccc1
active: all assays above

COc1cc(-c2nc(-c3ccccc3)c(-c3ccccc3)n2C2CCCCC2)ccc1OC1CCCC1
active: all assays above
